Data taken from patent EP0552417B1, “Cyclic peptides and use thereof” (priority 1991, dated 1993).
Non-standard residues stand in square brackets, D forms with d. Residues, ends and D or L forms follow the SMILES beside them. *: point of attachment. Hyp = O=C(O)[C@@H]1C[C@@H](O)CN1; d2Thi = N[C@H](Cc1cccs1)C(=O)O; Pip = O=C(O)[C@@H]1CCCCN1; Aze = O=C(O)[C@@H]1CCN1; For = O=C*

Key:
[1] = biological target: T1, endothelin receptor A (ETA) (Sus scrofa, UniProt Q29010); experiment: Assay of affinity for receptor (1): binding activity on ETA receptor, 125I-labeled endothelin-1, porcine heart membrane fraction; design: key: relative specific activity; reference cyclic pentapeptide ETA binding = 1.0; details: specific activity, taking the binding activity of control cyclo[-D-Glu-Ala-D-aIle-Leu-D-Trp-] on receptor A as 1.0, 25°C, 1 hour
T1 construct: A membrane fraction prepared from the porcine heart; from tissue; host or cells: porcine heart membrane fraction
T1 sequence (Q29010 21-427): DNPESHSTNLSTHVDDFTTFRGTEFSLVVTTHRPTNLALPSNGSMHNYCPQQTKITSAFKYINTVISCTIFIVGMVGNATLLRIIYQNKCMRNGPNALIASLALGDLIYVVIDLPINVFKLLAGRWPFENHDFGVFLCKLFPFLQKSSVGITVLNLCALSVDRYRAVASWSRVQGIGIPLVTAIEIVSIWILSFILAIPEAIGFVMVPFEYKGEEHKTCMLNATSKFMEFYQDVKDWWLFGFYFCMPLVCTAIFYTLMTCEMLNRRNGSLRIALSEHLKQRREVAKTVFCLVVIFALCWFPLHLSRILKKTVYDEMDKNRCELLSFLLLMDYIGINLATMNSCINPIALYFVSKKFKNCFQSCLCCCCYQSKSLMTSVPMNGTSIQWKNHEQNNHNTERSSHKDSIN
Method: Assay of Affinity for Receptor (1) ... Binding Activity on ETA Receptor
A membrane fraction prepared from the porcine heart was diluted to 0.15 mg/ml by using a buffer solution for assay, and 100 µl of the resulting suspension of the membrane fraction was poured into each assay tube to use for assay. To this suspension of the membrane fraction was added 2 µl of 5 nM ^125I-labeled endothelin-1 solution. Further, 3 µl of a test peptide solution was added thereto, followed by incubation at a temperature of 25°C for 1 hour. Then, the resulting suspension was diluted with 900 µl of the buffer solution for assay cooled with ice, and thereafter separated into a supernatant and a precipitate by centrifugation at 12,000 X g for 10 minutes. Cell membranes and an endothelin receptor A (ETA) embedded therein were contained in the precipitate, and radioactive iodine-labeled endothelin combined with the receptor was also recovered in the precipitate. Accordingly, the amount of radioactive iodine-labeled endothelin combined with the endothelin receptor A (ETA) was determined by measuring the amount of radioactive iodine contained in the precipitate with a gamma-ray counter. The cyclic pentapeptide described in Japanese Patent Application No. 2-413328/1990, cyclo[-D-Glu-Ala-D-aIle-Leu-D-Trp-], was used as a control compound. The numerical value of ETA shown in Table 1 is the value of specific activity, taking the binding activity of this cyclic pentapeptide on the receptor A as 1.0. The binding activity (IC50) of this cyclic pentapeptide on the ETA receptor is 2x10^-6 M.

[2] = biological target: T2, endothelin receptor B (ETB) (Bos taurus, UniProt P28088); experiment: Assay of affinity for receptor (2): binding activity on ETB receptor *1, 125I-labeled endothelin-1, bovine brain membrane fraction; details: specific activity, taking the binding activity of the compound of Example 8 on receptor B as 100, 25°C, 1 hour
T2 construct: A membrane fraction prepared from the bovine brain; from tissue; host or cells: bovine brain membrane fraction
T2 sequence (P28088 27-441): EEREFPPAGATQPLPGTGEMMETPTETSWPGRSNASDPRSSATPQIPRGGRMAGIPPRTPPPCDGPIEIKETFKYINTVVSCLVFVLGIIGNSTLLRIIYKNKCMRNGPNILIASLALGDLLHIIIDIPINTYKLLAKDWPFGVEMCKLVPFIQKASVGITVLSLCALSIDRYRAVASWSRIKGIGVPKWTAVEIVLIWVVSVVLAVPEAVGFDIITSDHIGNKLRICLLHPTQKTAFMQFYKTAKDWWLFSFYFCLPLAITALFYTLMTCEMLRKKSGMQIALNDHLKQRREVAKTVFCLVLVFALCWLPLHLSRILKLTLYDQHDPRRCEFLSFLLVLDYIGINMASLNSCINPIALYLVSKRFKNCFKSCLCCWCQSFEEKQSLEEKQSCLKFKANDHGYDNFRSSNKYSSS
Method: Assay of Affinity for Receptor (2) ... Binding Activity on ETB Receptor *1
A membrane fraction prepared from the bovine brain was diluted to 0.15 mg/ml by using a buffer solution for assay, and 100 µl of the resulting suspension of the membrane fraction was poured into each assay tube to use for assay. To this suspension of the membrane fraction was added 2 µl of 5 nM ^125I labeled endothelin-1 solution. Further, 3 µl of a test peptide solution was added thereto, followed by incubation at a temperature of 25°C for 1 hour. Then, the resulting suspension was diluted with 900 µl of the buffer solution for assay cooled with ice, and thereafter separated into a supernatant and a precipitate by centrifugation at 12,000 X g for 10 minutes. Cell membranes and an endothelin receptor B (ETB) embedded therein were contained in the precipitate, and radioactive iodine-labeled endothelin bound to the receptor was also recovered in the precipitate. Accordingly, the amount of radioactive iodine-labeled endothelin bound to the endothelin receptor B (ETB) was determined by measuring the amount of radioactive iodine contained in the precipitate with a gamma-ray counter. The numerical value of ETB shown in Table 1 is the value of specific activity, taking the binding activity of the compound of Example 8 on the receptor B as 100.

[3] = tested on: ETB; experiment: ETB radio receptor assay *2, 125I-endothelin-1, guinea pig kidney crude membrane fraction; assay type: binding, Guinea pigs; details: relative activity, 37 °C, 90 minutes
Method: ETB Radio Receptor Assay *2
In the endothelin radio receptor assay, guinea pigs' kidneys were used. Guinea pigs (Std Hartrey, male 250 g, Japan SLC Ltd.) were made to have a cerebral concussion and sacrificed by bleeding from carotid arteries to pick up the kidneys and removed fat therefrom to prepare the kidneys. The obtained kidneys were sliced and homogenized by politron homogenizer in 20 ml of 50 mM Tris-HCl buffer [pH 7.4; 20 mM NaHCO3, 0.1 mM PMSF (Phenylmethylsulfonyl Fluoride), 1 mM EDTA (Ethylenediaminetetraacetic acid)] per one kidney. The homogenized kidney was applied to a centrifugation at 1,000 x g for 15 minutes and the supernatant was further applied to a centrifugation for 20 minutes at 30,000 x g. The resulting precipitate was twice washed with 50 mM Tris-HCl buffer (pH 7.4) containing 0.1 mM PMSF, 1 mM EDTA. The resultant was stored at -80 °C as a crude receptor membrane fraction and was used as the suspension in the following buffer when necessary.
740 Bq of ^125I-endothelin-1 (81.4 TBq/mmol, Du Pont, USA) as a radio ligand, the crude membrane fraction (2.1 µg protein) and samples were added to the following buffer. The reaction was performed at 37 °C, for 90 minutes in 0.2 ml of the buffer [50 mM Tris-HCl buffer (pH 7.4) containing 0.1 mM PMSF, 1 mM EDTA, 0.2% bovine serum albumin].
The reaction was stopped by fast filtration on a glass filter (GF/B, Wattman, USA) by Cell Harvestor (290 PHD, Cambridge-Technology, Great Britain), and the filter was three times washed with 50 mM Tris-HCl buffer (pH 7.4). Radio activity remained on the filter was assayed by a gamma counter.

Row | Binding Activity on ET Receptor (R. act.) ETA [1] | Binding Activity on ET Receptor (R. act.) ETB*1 [2] | Binding Activity on ET Receptor (R. act.) ETB*2 [3] | SMILES
1 | 4 | 350 | 57 | CC(C)C[C@@H]1NC(=O)[C@@H](Cc2cccs2)NC(=O)[C@H](CC(=O)O)NC(=O)[C@H](Cc2c[nH]c3ccccc23)NC(=O)[C@@H](CC(=O)O)NC(=O)[C@@H](Cc2c[nH]c3ccccc23)NC1=O [Example 50, Cyclo[-D-Asp-Trp-Asp-D-Thi-Leu-D-Trp-]] (cyclo(D[d2Thi]L[dW][dD]W))
2 | 10 | 14 | 34 | CC(C)C[C@@H]1NC(=O)[C@@H](CC(C)C)NC(=O)[C@H](CC(=O)O)NC(=O)[C@H](CC(=O)O)NC(=O)[C@@H](CC(=O)O)NC(=O)[C@@H](Cc2c[nH]c3ccccc23)NC1=O [Example 16, Cyclo[-D-Asp-Asp-Asp-D-Leu-Leu-D-Trp-]] (cyclo(DD[dL]L[dW][dD]))
3 | 56 | 140 | 67 | CC(C)C[C@@H]1NC(=O)[C@@H](CC(C)C)NC(=O)[C@H](CC(=O)O)NC(=O)[C@@H]2CCCN2C(=O)[C@@H](CC(=O)O)NC(=O)[C@@H](Cc2c[nH]c3ccccc23)NC1=O [Example 9, cyclo[-D-Asp-Pro-Asp-D-Leu-Leu-D-Trp-]] (cyclo(D[dL]L[dW][dD]P))
4 | 25 | 38 | 73 | CC(C)C[C@@H]1NC(=O)[C@@H](CC(C)C)NC(=O)[C@H](CC(=O)O)NC(=O)[C@@H]2CCCCN2C(=O)[C@@H](CC(=O)O)NC(=O)[C@@H](Cc2c[nH]c3ccccc23)NC1=O [Example 26, Cyclo[-D-Asp-Pip-Asp-D-Leu-Leu-D-Trp-]] (cyclo(D[dL]L[dW][dD][Pip]))
5 | 75 | 240 | 100 | CC(C)C[C@@H]1NC(=O)[C@@H](C(C)C)NC(=O)[C@H](CC(=O)O)NC(=O)[C@H](Cc2c[nH]c3ccccc23)NC(=O)[C@@H](CC(=O)O)NC(=O)[C@@H](Cc2c[nH]c3ccccc23)NC1=O [Example 52, Cyclo[-D-Asp-Trp-Asp-D-Val-Leu-D-Trp-]] (cyclo(D[dV]L[dW][dD]W))
6 | 0.7 | 6.7 | 22 | CC(C)C[C@H]1NC(=O)[C@H](CC(=O)O)NC(=O)[C@H](C)NC(=O)[C@@H](CC(=O)O)NC(=O)[C@@H](Cc2c[nH]c3ccccc23)NC(=O)[C@H](Cc2c[nH]c3ccccc23)NC1=O [Example 58, Cyclo[-D-Asp-Ala-Asp-D-Leu-Trp-D-Trp-]] (cyclo(AD[dL]W[dW][dD]))
7 | 8.3 | 6.7 | 15 | CC(C)C[C@@H]1NC(=O)[C@@H](CC(C)C)NC(=O)[C@H](CC(=O)O)NC(=O)[C@H](Cc2cn(C=O)c3ccccc23)NC(=O)[C@@H](CC(=O)O)NC(=O)[C@@H](Cc2c[nH]c3ccccc23)NC1=O [Example 22, Cyclo[-D-Asp-Trp(For)-Asp-D-Leu-Leu-D-Trp-]] (cyclo(D[dL]L[dW][dD]W(For)))
8 | 30 | 25 | 57 | CC(C)C[C@@H]1NC(=O)[C@@H](CC(C)C)NC(=O)[C@H](CC(=O)O)NC(=O)[C@@H]2CCN2C(=O)[C@@H](CC(=O)O)NC(=O)[C@@H](Cc2c[nH]c3ccccc23)NC1=O [Example 25, Cyclo[-D-Asp-Azc-Asp-D-Leu-Leu-D-Trp-]] (cyclo([Aze]D[dL]L[dW][dD]))
9 | 9.7 | 13 | 2.0 | CC(C)C[C@@H]1NC(=O)[C@@H](CC(C)C)NC(=O)[C@H](CC(=O)O)NC(=O)[C@H](C)NC(=O)[C@@H](CC(=O)O)NC(=O)[C@@H](Cc2c[nH]c3ccccc23)NC1=O [Example 1, cyclo[-D-Asp-Ala-Asp-D-Leu-Leu-D-Trp-]] (cyclo(AD[dL]L[dW][dD]))
10 | 1 | 210 | 44 | CC(C)C[C@@H]1NC(=O)[C@@H](Cc2ccccc2)NC(=O)[C@H](CC(=O)O)NC(=O)[C@H](Cc2c[nH]c3ccccc23)NC(=O)[C@@H](CC(=O)O)NC(=O)[C@@H](Cc2c[nH]c3ccccc23)NC1=O [Example 60, Cyclo[-D-Asp-Trp-Asp-D-Phe-Leu-D-Trp-]] (cyclo(D[dF]L[dW][dD]W))
11 | 70 | 160 | 120 | CC(C)C[C@@H]1NC(=O)[C@@H](CC(C)C)NC(=O)[C@H](CC(=O)O)NC(=O)[C@@H]2C[C@@H](O)CN2C(=O)[C@@H](CC(=O)O)NC(=O)[C@@H](Cc2c[nH]c3ccccc23)NC1=O [Example 14, cyclo[-D-Asp-Hyp-Asp-D-Leu-Leu-D-Trp-]] (cyclo(D[dL]L[dW][dD][Hyp]))
